Assay results published in US12180187B2, “1-phenyl-5-azinylpyrazolyl-3-oxyalkyl acids and their use for controlling unwanted plant growth” (BAYER AKTIENGESELLSCHAFT, priority 2019, dated 2024).

Legend:
DIGSA [1] = assay: Pre-emergence action against DIGSA, 1280 g/ha; format: in vivo, Digitaria sanguinalis; conditions: visual scoring after about 3 weeks vs untreated controls, 100% = plants have died, 0% = like control plants
Source text: (§1) 1. Pre-Emergence Herbicidal Effect and Crop Plant Compatibility a) Seeds of mono- and dicotyledonous weed plants are placed in plastic pots in sandy loam soil (doubly sown with one species each of mono- or dicotyledonous weed plants per pot) and covered with soil. The compounds of the invention, formulated in the form of wettable powders (WP) or as emulsion concentrates (EC), are then applied onto the surface of the covering soil as aqueous suspension or emulsion with addition of 0.5% additive at a water application rate equivalent to 600 litres per hectare. After the treatment, the pots are placed in a greenhouse and kept under good growth conditions for the trial plants. After about 3 weeks, the effect of the preparations is scored visually in comparison with untreated controls as percentages. For example, 100% activity=the plants have died, 0% activity=like control plants. 1. Pre-Emergence Effectiveness Tables 1 to 12 below show the effects of selected compounds of the general formula (I) according to Tables 1 and 2 on various harmful plants and at an application rate corresponding to 1280 g/ha, which were obtained by the experimental procedure mentioned above.

ECHCG [2] = assay: Pre-emergence action against ECHCG, 1280 g/ha; format: in vivo, Echinochloa crus-galli; conditions: visual scoring after about 3 weeks vs untreated controls, 100% = plants have died, 0% = like control plants
Source text: as §1

LOLRI = assay: Pre-emergence action against LOLRI, 1280 g/ha; format: in vivo, Lolium rigidum; conditions: visual scoring after about 3 weeks vs untreated controls, 100% = plants have died, 0% = like control plants
Source text: as §1

POAAN [3] = assay: Pre-emergence action against POAAN, 1280 g/ha; format: in vivo, Poa annua; conditions: visual scoring after about 3 weeks vs untreated controls, 100% = plants have died, 0% = like control plants
Source text: as §1

SETVI = assay: Pre-emergence action against SETVI, 1280 g/ha; format: in vivo, Setaria viridis; conditions: visual scoring after about 3 weeks vs untreated controls, 100% = plants have died, 0% = like control plants
Source text: as §1

AMARE [4] = assay: Pre-emergence action against AMARE, 1280 g/ha; format: in vivo, Amaranthus retroflexus; conditions: scored visually after about 3 weeks vs untreated controls (100% = plants have died)
Source text: as §1

MATIN [5] = assay: Pre-emergence action against MATIN, 1280 g/ha; format: in vivo, Tripleurospermum inodorum (Matricaria inodora); conditions: scored visually after about 3 weeks vs untreated controls (100% = plants have died)
Source text: as §1

STEME = assay: Pre-emergence action against STEME, 1280 g/ha; format: in vivo, Stellaria media; conditions: scored visually after about 3 weeks vs untreated controls (100% = plants have died)
Source text: as §1

VERPE [6] = assay: Pre-emergence action against VERPE, 1280 g/ha; format: in vivo, Veronica persica; conditions: scored visually after about 3 weeks vs untreated controls (100% = plants have died)
Source text: as §1

ALOMY [7] = assay: Post-emergence action against ALOMY, 1.28 kg/ha; format: in vivo, Alopecurus myosuroides; conditions: dosage 1280 g/ha, visual rating about 3 weeks after treatment vs untreated controls
Experimental: (§2) • a) Seeds of mono- and dicotyledonous weed plants are placed in plastic pots in sandy loam soil (twin sowing with one species each of mono- or dicotyledonous weed plants per pot), covered with soil and cultivated in a greenhouse under controlled growth conditions. 2 to 3 weeks after sowing, the test plants are treated at the one-leaf stage. The compounds of the invention, formulated in the form of wettable powders (WP) or as emulsion concentrates (EC), are applied to the green parts of the plants as aqueous suspension or emulsion with addition of 0.5% additive at a water application rate equivalent to 600 litres per hectare. After the test plants have been kept in the greenhouse under optimum growth conditions for about 3 weeks, the activity of the preparations is rated visually in comparison to untreated controls. For example, 100% activity=the plants have died, 0% activity=like control plants. As shown by the results, compounds of the general formula (I) of the invention, in post-emergence treatment, have very good herbicidal efficacy (90% to 100% herbicidal action) against harmful plants such as Abutilon theophrasti, Digitaria sanguinalis, Echinochloa crus-galli, Matricaria inodora, Poa annua, at an application rate of 1.28 kg of active substance per hectare.

ECHCG [8] = assay: Post-emergence action against ECHCG, 1.28 kg/ha; format: in vivo, Echinochloa crus-galli; conditions: dosage 1280 g/ha, visual rating about 3 weeks after treatment vs untreated controls
Experimental: as §2

ABUTH = assay: Post-emergence action against ABUTH, 1.28 kg/ha; format: in vivo, Abutilon theophrasti; conditions: dosage 1280 g/ha, visual rating about 3 weeks after treatment vs untreated controls (100% = plants died)
Experimental: as §2

AMARE [9] = assay: Post-emergence action against AMARE, 1.28 kg/ha; format: in vivo, Amaranthus retroflexus; conditions: dosage 1280 g/ha, visual rating about 3 weeks after treatment vs untreated controls (100% = plants died)
Experimental: as §2

VERPE [10] = assay: Post-emergence action against VERPE, 1.28 kg/ha; format: in vivo, Veronica persica; conditions: dosage 1280 g/ha, visual rating about 3 weeks after treatment vs untreated controls (100% = plants died)
Experimental: as §2

ALOMY [11] = assay: Pre-emergence action against ALOMY, 1280 g/ha; format: in vivo, Alopecurus myosuroides; conditions: visual scoring after about 3 weeks vs untreated controls, 100% = plants have died, 0% = like control plants
Source text: as §1

DIGSA [12] = assay: Post-emergence action against DIGSA, 1.28 kg/ha; format: in vivo, Digitaria sanguinalis; conditions: dosage 1280 g/ha, visual rating about 3 weeks after treatment vs untreated controls
Experimental: as §2

POAAN [13] = assay: Post-emergence action against POAAN, 1.28 kg/ha; format: in vivo, Poa annua; conditions: dosage 1280 g/ha, visual rating about 3 weeks after treatment vs untreated controls
Experimental: as §2

MATIN [14] = assay: Post-emergence action against MATIN, 1.28 kg/ha; format: in vivo, Tripleurospermum inodorum (Matricaria inodora); conditions: dosage 1280 g/ha, visual rating about 3 weeks after treatment vs untreated controls (100% = plants died)
Experimental: as §2

Row | SMILES | Pre-emergence action against DIGSA (DIGSA [1]) | Pre-emergence action against ECHCG (ECHCG [2]) | Pre-emergence action against LOLRI (LOLRI) | Pre-emergence action against POAAN (POAAN [3]) | Pre-emergence action against SETVI (SETVI) | Pre-emergence action against AMARE (AMARE [4]) | Pre-emergence action against MATIN (MATIN [5]) | Pre-emergence action against STEME (STEME) | Pre-emergence action against VERPE (VERPE [6]) | Post-emergence action against ALOMY (ALOMY [7]) | Post-emergence action against ECHCG (ECHCG [8]) | Post-emergence action against ABUTH (ABUTH) | Post-emergence action against AMARE (AMARE [9]) | Post-emergence action against VERPE (VERPE [10]) | Pre-emergence action against ALOMY (ALOMY [11]) | Post-emergence action against DIGSA (DIGSA [12]) | Post-emergence action against POAAN (POAAN [13]) | Post-emergence action against MATIN (MATIN [14])
1 | CCOC(=O)COc1nn(-c2ccccc2F)c(-c2cnccn2)c1Br [Example I-004] | 90% | 90% | 90% | 100% | 100% | 100% | 90% | 100% | 90% | 100% | 90% | 90% | 90% | 100% |  |  |  | 
2 | CCOC(=O)COc1nn(-c2ccccc2F)c(-c2ccc(F)cn2)c1Br [II-014] | 100% | 100% | 100% | 100% | 90% | 90% | 100% | 90% | 100% |  |  | 90% | 90% | 90% | 100% | 90% | 90% | 90%
3 | O=C(COc1nn(-c2ccccc2F)c(-c2ccc(F)nc2)c1Br)OCc1ccco1 [VII-098] | 100% | 100% | 100% | 100% | 100% | 100% | 90% | 100% | 100% | 100% | 90% | 90% |  | 90% | 100% | 100% | 100% | 100%
4 | COC(=O)COc1nn(-c2ccccc2F)c(-c2ccc(F)nc2)c1SC [VII-123] | 100% |  | 90% | 100% |  | 90% | 100% | 90% | 90% | 90% | 100% | 90% | 90% | 90% |  |  | 100% | 90%
